One test concerns the target T1, SMARCA2 (Homo sapiens, UniProt P51531).
T1 construct: endogenous in cells
Description: SMARCA2 Cellular Degradation Assay (Western blot analysis on Jess platform). In kind it is cell-based. The conditions noted are these: for DC50 / Dmax: cellular degradation; for Fold Selectivity SMARCA4/2: ratio DC50 SMARCA4 / DC50 SMARCA2. The procedure, abridged: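 Lysates of cells extracted from tumors, 5 μg total protein per capillary, were probed for SMARCA2 and β-actin by capillary Western on Jess using chemiluminescence and fluorescence detection. SMARCA2 peak area was background-subtracted and normalized to actin, then expressed as % remaining relative to vehicle control.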
In general terms: In western blotting, separated proteins are transferred to a membrane and probed.

A further test deals with T2, SMARCA4 (Homo sapiens, UniProt P51532).
T2 construct: endogenous in cells
Description: Cellular degradation assay, SMARCA4 (Table 1). The class given is cell-based.

Each structure is given as a SMILES string.

Results on 15 molecules are retold here after patent US20250051344A1, “BIFUNCTIONAL SELECTIVE DEGRADERS OF SMARCA2 AND THERAPEUTIC USES THEREOF” (Nurix Therapeutics, Inc., priority 2023, published 2025).

T1 sequence (P51531 whole entry, species assumed): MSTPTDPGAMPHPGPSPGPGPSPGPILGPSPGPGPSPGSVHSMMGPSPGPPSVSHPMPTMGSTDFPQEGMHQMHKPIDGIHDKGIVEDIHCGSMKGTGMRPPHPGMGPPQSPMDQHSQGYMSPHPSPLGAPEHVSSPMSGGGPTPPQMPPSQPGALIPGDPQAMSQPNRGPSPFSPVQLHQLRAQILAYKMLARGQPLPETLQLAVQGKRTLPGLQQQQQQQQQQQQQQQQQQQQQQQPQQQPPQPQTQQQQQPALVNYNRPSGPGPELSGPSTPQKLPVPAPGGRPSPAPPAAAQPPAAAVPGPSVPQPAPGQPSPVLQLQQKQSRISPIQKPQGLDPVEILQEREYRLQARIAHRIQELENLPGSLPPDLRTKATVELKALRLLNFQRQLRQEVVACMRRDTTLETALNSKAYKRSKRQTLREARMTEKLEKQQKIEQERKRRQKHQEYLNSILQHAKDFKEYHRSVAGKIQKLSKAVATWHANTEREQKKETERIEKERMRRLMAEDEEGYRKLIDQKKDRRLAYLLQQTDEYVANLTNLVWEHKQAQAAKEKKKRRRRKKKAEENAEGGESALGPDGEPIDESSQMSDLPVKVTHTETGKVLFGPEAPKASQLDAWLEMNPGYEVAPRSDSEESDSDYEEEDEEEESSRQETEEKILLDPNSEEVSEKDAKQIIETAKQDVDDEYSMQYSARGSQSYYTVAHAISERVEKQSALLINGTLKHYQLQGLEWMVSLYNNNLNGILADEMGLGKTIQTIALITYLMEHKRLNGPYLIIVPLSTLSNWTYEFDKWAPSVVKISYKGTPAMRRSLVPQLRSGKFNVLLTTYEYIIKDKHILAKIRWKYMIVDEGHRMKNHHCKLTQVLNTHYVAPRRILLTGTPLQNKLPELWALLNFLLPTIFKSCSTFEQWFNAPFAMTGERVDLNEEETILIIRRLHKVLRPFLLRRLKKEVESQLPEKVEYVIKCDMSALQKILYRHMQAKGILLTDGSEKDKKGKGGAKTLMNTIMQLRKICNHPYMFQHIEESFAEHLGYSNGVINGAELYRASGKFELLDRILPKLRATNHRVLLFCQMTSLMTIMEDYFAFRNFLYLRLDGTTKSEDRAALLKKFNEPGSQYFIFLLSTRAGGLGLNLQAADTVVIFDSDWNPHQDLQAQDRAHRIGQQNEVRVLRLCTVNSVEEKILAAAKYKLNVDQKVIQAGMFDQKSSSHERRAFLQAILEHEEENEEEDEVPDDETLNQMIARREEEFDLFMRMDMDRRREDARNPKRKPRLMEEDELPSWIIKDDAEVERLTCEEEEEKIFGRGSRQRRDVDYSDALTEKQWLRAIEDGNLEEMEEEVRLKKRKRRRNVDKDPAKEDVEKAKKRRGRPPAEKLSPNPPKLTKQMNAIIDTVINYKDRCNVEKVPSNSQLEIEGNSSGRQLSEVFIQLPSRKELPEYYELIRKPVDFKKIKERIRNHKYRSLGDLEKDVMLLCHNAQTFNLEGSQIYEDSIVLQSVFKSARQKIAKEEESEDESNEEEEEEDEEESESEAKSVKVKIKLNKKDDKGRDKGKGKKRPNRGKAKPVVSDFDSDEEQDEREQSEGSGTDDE
T2 sequence (P51532 whole entry, species assumed): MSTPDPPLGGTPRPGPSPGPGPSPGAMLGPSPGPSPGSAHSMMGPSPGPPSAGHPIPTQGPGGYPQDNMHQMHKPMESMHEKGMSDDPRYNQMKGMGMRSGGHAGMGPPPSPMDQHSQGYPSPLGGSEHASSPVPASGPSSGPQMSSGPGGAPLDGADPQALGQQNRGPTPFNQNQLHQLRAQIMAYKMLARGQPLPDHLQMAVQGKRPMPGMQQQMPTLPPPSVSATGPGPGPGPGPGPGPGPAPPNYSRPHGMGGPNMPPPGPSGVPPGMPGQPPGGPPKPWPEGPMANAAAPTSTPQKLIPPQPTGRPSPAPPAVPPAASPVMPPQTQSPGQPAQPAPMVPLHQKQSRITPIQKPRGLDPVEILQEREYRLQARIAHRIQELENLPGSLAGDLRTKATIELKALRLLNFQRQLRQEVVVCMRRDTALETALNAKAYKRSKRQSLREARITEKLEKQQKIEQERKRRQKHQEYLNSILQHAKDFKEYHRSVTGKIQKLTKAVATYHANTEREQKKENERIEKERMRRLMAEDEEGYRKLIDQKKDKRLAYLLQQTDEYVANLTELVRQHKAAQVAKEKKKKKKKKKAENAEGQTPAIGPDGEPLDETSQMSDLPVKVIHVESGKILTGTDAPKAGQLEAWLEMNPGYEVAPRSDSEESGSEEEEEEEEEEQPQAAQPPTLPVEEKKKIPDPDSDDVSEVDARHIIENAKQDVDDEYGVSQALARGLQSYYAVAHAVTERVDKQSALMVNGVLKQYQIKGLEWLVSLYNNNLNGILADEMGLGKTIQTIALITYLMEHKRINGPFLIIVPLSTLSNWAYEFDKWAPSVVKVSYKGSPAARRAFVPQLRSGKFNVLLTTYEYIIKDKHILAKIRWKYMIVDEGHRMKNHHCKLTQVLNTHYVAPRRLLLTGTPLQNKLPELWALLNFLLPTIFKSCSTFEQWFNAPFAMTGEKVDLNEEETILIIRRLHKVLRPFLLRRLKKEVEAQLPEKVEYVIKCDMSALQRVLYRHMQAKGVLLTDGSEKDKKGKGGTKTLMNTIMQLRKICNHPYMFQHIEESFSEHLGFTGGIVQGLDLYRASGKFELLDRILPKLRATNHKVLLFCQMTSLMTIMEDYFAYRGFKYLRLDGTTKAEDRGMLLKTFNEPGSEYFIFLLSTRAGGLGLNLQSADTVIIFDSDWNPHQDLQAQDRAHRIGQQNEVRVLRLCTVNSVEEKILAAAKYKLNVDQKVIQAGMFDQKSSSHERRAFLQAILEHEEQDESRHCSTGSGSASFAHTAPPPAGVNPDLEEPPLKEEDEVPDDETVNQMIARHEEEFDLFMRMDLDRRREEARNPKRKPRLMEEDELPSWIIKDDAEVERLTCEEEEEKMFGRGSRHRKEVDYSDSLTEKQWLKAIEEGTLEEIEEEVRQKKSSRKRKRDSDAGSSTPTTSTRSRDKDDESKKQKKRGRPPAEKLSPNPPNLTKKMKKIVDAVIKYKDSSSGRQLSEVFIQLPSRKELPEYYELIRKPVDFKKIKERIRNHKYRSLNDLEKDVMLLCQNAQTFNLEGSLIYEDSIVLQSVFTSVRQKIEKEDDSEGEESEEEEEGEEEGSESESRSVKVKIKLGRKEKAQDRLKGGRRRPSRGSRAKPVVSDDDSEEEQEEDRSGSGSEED

By DC50 is commonly meant the midpoint of the concentration-degradation curve. Broadly, the Dmax is the greatest extent of degradation seen. Low values mean a partial loss of target, high ones a fuller loss of target. `CN(C(=O)C1(c2ccccc2)CCN(c2cnnc(-c3ccccc3O)c2)CC1)C1CCN(CC2CCN(c3cccc([C@@H]4CCC(=O)NC4=O)c3)CC2)CC1` (racemic) [Example 102, rac-(r)-n-(1-((1-(3-(2,6-dioxopiperidin-3-yl)phenyl)piperidin-4-yl)methyl)piperidin-4-yl)-1-(6-(2-hydroxyphenyl)pyridazin-4-yl)-n-methyl-4-phenylpiperidine-4-carboxamide]: at SMARCA2, it took 26.3 nM to reach half-maximal degradation (DC50), the maximal degradation (Dmax) worked out at 77.7% and the “Fold Selectivity SMARCA4/2” value is given as 11. At SMARCA4, this molecule displayed a DC50 of 295 nM and a Dmax of 54.4%.
For the molecule `O=C1CC[C@H](c2ccc(N3CCC(CCN4CCC(Oc5ccccc5)(C(=O)NCC5(c6ccccc6)CCN(c6cnnc(-c7ccccc7O)c6)CC5)CC4)CC3)cc2)C(=O)N1` (racemic) [Example 103, rac-(r)-1-(2-(1-(4-(2,6-dioxopiperidin-3-yl)phenyl)piperidin-4-yl)ethyl)-n-((1-(6-(2-hydroxyphenyl)pyridazin-4-yl)-4-phenylpiperidin-4-yl)methyl)-4-phenoxypiperidine-4-carboxamide], at SMARCA2, the DC50 turned out to be 15.7 nM, the Dmax is 87.4% and the “Fold Selectivity SMARCA4/2” value was found to be 8. For the same molecule, at SMARCA4, it took 129 nM to reach half-maximal degradation (DC50) and the Dmax stood at 68.4%.
For `O=C1CC[C@H](c2ccc(N3CCC(CCN4CCC(C(=O)NCC5(c6ccccc6)CCN(c6cnnc(-c7ccccc7O)c6)CC5)CC45CCOCC5)CC3)cc2)C(=O)N1` (mixture of isomers) [Example 104, rac-1-(2-(1-(4-((r)-2,6-dioxopiperidin-3-yl)phenyl)piperidin-4-yl)ethyl)-n-((1-(6-(2-hydroxyphenyl)pyridazin-4-yl)-4-phenylpiperidin-4-yl)methyl)-9-oxa-1-azaspiro[5.5]undecane-4-carboxamide], at SMARCA2, half-maximal degradation (DC50) was put at 7.3 nM, the maximal degradation (Dmax) is 81.8% and the “Fold Selectivity SMARCA4/2” value is reported as 1370. This molecule also displayed a Dmax on SMARCA4 of 50%.
As to `O=C1CC[C@H](c2ccc(N3CCC(CCN4CCC(OCC(F)(F)F)(C(=O)NCC5(c6ccccc6)CCN(c6cnnc(-c7ccccc7O)c6)CC5)CC4)CC3)cc2)C(=O)N1` (racemic) [Example 105, rac-(r)-1-(2-(1-(4-(2,6-dioxopiperidin-3-yl)phenyl)piperidin-4-yl)ethyl)-n-((1-(6-(2-hydroxyphenyl)pyridazin-4-yl)-4-phenylpiperidin-4-yl)methyl)-4-(2,2,2-trifluoroethoxy)piperidine-4-carboxamide], at SMARCA2, it took 4.98 nM to reach half-maximal degradation (DC50), the maximal degradation (Dmax) stood at 92.2% and the “Fold Selectivity SMARCA4/2” value turned out to be 12. At SMARCA4, this molecule gave a half-maximal degradation concentration (DC50) of 57.5 nM and a maximal degradation (Dmax) of 73.1%.
For the molecule `COc1ccccc1C1(C(=O)N2CC3(C2)CN(C2COC4(CCN(c5ccc([C@H]6CCC(=O)NC6=O)cc5)CC4)C2)C3)CCN(c2cnnc(-c3ccccc3O)c2)CC1` (mixture of isomers) [Example 106, (3R)-3-{4-[(3RS)-3-(6-{1-[6-(2-hydroxyphenyl)pyridazin-4-yl]-4-(2-methoxyphenyl)piperidine-4-carbonyl}-2,6-diazaspiro[3.3]heptan-2-yl)-1-oxa-8-azaspiro[4.5]decan-8-yl]phenyl}piperidine-2,6-dione], on SMARCA2, the 50% degradation concentration (DC50) worked out at 4.91 nM, the Dmax is 78.3% and the “Fold Selectivity SMARCA4/2” value is 7. At SMARCA4, it took 32.2 nM to reach half-maximal degradation (DC50) and the maximal degradation (Dmax) was 59.4%.
As to `O=C1CC[C@H](c2ccc(N3CCC(CCN4CCC[C@@H]4C(=O)NCC4(c5ccccc5)CCN(c5cnnc(-c6ccccc6O)c5)CC4)CC3)cc2)C(=O)N1` (racemic) [Example 107, (r)-1-(2-(1-(4-((rs)-2,6-dioxopiperidin-3-yl)phenyl)piperidin-4-yl)ethyl)-n-((1-(6-(2-hydroxyphenyl)pyridazin-4-yl)-4-phenylpiperidin-4-yl)methyl)pyrrolidine-2-carboxamide], on SMARCA2, the half-maximal degradation concentration (DC50) was 41.3 nM, the Dmax stood at 58.8% and the “Fold Selectivity SMARCA4/2” value is 242. The Dmax at SMARCA4 worked out at 29.4%.
Consider `O=C1CCC(Nc2ccc(C3CCN(CC(=O)N4CCC5(CC4)CN(C(=O)C4(c6ccccc6)CCN(c6cnnc(-c7ccccc7O)c6)CC4)C5)CC3)cc2)C(=O)N1` (racemic) [Example 108, rac-(r)-3-((4-(1-(2-(2-(1-(6-(2-hydroxyphenyl)pyridazin-4-yl)-4-phenylpiperidine-4-carbonyl)-2,7-diazaspiro[3.5]nonan-7-yl)-2-oxoethyl)piperidin-4-yl)phenyl)amino)piperidine-2,6-dione], for which, at SMARCA2, the half-maximal degradation concentration (DC50) was determined as 23.4 nM, the Dmax came out at 66.5% and the “Fold Selectivity SMARCA4/2” value came out at 8. On SMARCA4, half-maximal degradation (DC50) was put at 179 nM and the greatest degradation seen (Dmax) amounted to 52.5%.
For `O=C1CC[C@H](c2ccc(C3CCN(CC(=O)N4CCC(S(=O)(=O)NCC5(c6ccccc6)CCN(c6cnnc(-c7ccccc7O)c6)CC5)CC4)CC3)cc2)C(=O)N1` (racemic) [Example 109, rac-1-(2-(4-(4-(2,6-dioxopiperidin-3-yl)phenyl)piperidin-1-yl)acetyl)-n-((1-(6-(2-hydroxyphenyl)pyridazin-4-yl)-4-phenylpiperidin-4-yl)methyl)piperidine-4-sulfonamide], in that order: 76.9 nM, 82.7%, 6, 498 nM and 67.1%.
Regarding `CN(C(=O)C1(Oc2ccn(C)n2)CCN(c2cnnc(-c3ccccc3O)c2)CC1)C1CCN(C(=O)CN2CCC(c3ccc([C@@H]4CCC(=O)NC4=O)cc3)CC2)CC1` (racemic) [Example 110, rac-n-(1-(2-(4-(4-(2,6-dioxopiperidin-3-yl)phenyl)piperidin-1-yl)acetyl)piperidin-4-yl)-1-(6-(2-hydroxyphenyl)pyridazin-4-yl)-n-methyl-4-((1-methyl-1h-pyrazol-3-yl)oxy)piperidine-4-carboxamide], at SMARCA2, the DC50 came to 16.7 nM, the Dmax amounted to 80.8% and the “Fold Selectivity SMARCA4/2” value came out at 16. Also, at SMARCA4, the 50% degradation concentration (DC50) was found to be 273 nM and the greatest degradation seen (Dmax) was 56.9%.
As for `COC1(C(=O)N(C)C2CCN(C(=O)CN3CCC(c4ccc([C@@H]5CCC(=O)NC5=O)cc4)CC3)CC2)CCN(c2cnnc(-c3ccccc3O)c2)CC1` (racemic) [Example 111, rac-n-(1-(2-(4-(4-(2,6-dioxopiperidin-3-yl)phenyl)piperidin-1-yl)acetyl)piperidin-4-yl)-1-(6-(2-hydroxyphenyl)pyridazin-4-yl)-4-methoxy-n-methylpiperidine-4-carboxamide], at SMARCA2, the DC50 turned out to be 11.1 nM, the maximal degradation (Dmax) was 81.4% and the “Fold Selectivity SMARCA4/2” value is 19. At SMARCA4, this molecule returned a DC50 of 210 nM and a maximal degradation (Dmax) of 57.5%.
For the molecule `CN(C(=O)C1(Oc2ccccc2Cl)CCN(c2cnnc(-c3ccccc3O)c2)CC1)C1CCN(C(=O)CN2CCC(c3ccc([C@@H]4CCC(=O)NC4=O)cc3)CC2)CC1` (racemic) [Example 112], on SMARCA2, half-maximal degradation (DC50) was put at 4.19 nM, the maximal degradation (Dmax) is 92% and the “Fold Selectivity SMARCA4/2” value turned out to be 5. For the same molecule, on SMARCA4, it took 20.8 nM to reach half-maximal degradation (DC50) and the Dmax was 87.7%.
On to `O=C1CCC(c2ccc(C3CCN(CC(=O)N4CC5(C4)CN(C(=O)C4(Oc6ccccc6Cl)CCN(c6cnnc(-c7ccccc7O)c6)CC4)C5)CC3)cc2)C(=O)N1` (racemic) [Example 113, rac-(r)-3-(4-(1-(2-(6-(4-(2-chlorophenoxy)-1-(6-(2-hydroxyphenyl)pyridazin-4-yl)piperidine-4-carbonyl)-2,6-diazaspiro[3.3]heptan-2-yl)-2-oxoethyl)piperidin-4-yl)phenyl)piperidine-2,6-dione], for which, on SMARCA2, the DC50 is 9.76 nM, the Dmax was 83.6% and the “Fold Selectivity SMARCA4/2” value worked out at 9. Moreover, at SMARCA4, the DC50 worked out at 87.4 nM and the greatest degradation seen (Dmax) turned out to be 63.4%.
On to `CN(C(=O)C1(OC2CC2)CCN(c2cnnc(-c3ccccc3O)c2)CC1)C1CCN(C(=O)CN2CCC(c3ccc([C@@H]4CCC(=O)NC4=O)cc3)CC2)CC1` (racemic) [Example 115, rac-4-cyclopropoxy-n-(1-(2-(4-(4-(2,6-dioxopiperidin-3-yl)phenyl)piperidin-1-yl)acetyl)piperidin-4-yl)-1-(6-(2-hydroxyphenyl)pyridazin-4-yl)-n-methylpiperidine-4-carboxamide], for which, on SMARCA2, half-maximal degradation (DC50) was put at 10.7 nM, the greatest degradation seen (Dmax) was 77.6% and the “Fold Selectivity SMARCA4/2” value is listed as 937. On SMARCA4, this molecule displayed a Dmax of 45.2%.
Take `Cc1ccccc1OC1(C(=O)N(C)C2CCN(C(=O)CN3CCC(c4ccc([C@@H]5CCC(=O)NC5=O)cc4)CC3)CC2)CCN(c2cnnc(-c3ccccc3O)c2)CC1` (racemic) [Example 116, rac-n-(1-(2-(4-(4-(2,6-dioxopiperidin-3-yl)phenyl)piperidin-1-yl)acetyl)piperidin-4-yl)-1-(6-(2-hydroxyphenyl)pyridazin-4-yl)-n-methyl-4-(o-tolyloxy)piperidine-4-carboxamide]: at SMARCA2, the half-maximal degradation concentration (DC50) amounted to 7.97 nM, the Dmax was 88.6% and the “Fold Selectivity SMARCA4/2” value came out at 7. On SMARCA4, this molecule returned a half-maximal degradation concentration (DC50) of 57.4 nM and a Dmax of 75.8%.
On the same counts, the results for `CN(C(=O)C1(OC2CCCCC2)CCN(c2cnnc(-c3ccccc3O)c2)CC1)C1CCN(C(=O)CN2CCC(c3ccc([C@@H]4CCC(=O)NC4=O)cc3)CC2)CC1` (racemic) [Example 117, rac-4-(cyclohexyloxy)-n-(1-(2-(4-(4-(2,6-dioxopiperidin-3-yl)phenyl)piperidin-1-yl)acetyl)piperidin-4-yl)-1-(6-(2-hydroxyphenyl)pyridazin-4-yl)-n-methylpiperidine-4-carboxamide] are 16.7 nM, 82.1%, 9, 153 nM and 62.4%.
